Measured values published in patent publication US20040019092A1, “Non-peptide somatostatin receptor ligands” (priority 2001, published 2004).
Values belong to the compound of their own block, whether it stands above or below them.

Assays:
[1] = biological target: sst2 (Homo sapiens, UniProt P30874); assay: sst2 cyclase (second messenger studies); assay type: cell-based
Text: In particular the compounds of the invention bind to somatostatin receptors. More particularly they are selective agonists at Somatostatin sst2 receptors, as determined in radioligand binding and second messenger studies (see for example K. Kaupmann et al., FEBS LETTERS 1993, 331, […]).

[2] = Plasma protein binding, equilibrium dialysis, human plasma; assay type: in vitro ADME; conditions: 50-5000 ng/mL, 37° C.
Protocol: In vitro blood distribution and plasma protein binding. For blood distribution studies, fresh, heparinized rat blood (n=3) was spiked with [^14C]-42 to achieve the final concentrations of 5, 50, 500 and 5000 ng/mL. After a 30-minutes incubation at 4° C., 22° C. and 37° C., the samples were centrifuged (1600×g, 10 minutes, at the incubation temperature) to get plasma. The fraction free of 42 in plasma of rat and human was determined by equilibrium dialysis. Phosphate buffer was spiked with [^14C]-42 (50, 500, 5000 ng/mL) and dialyzed versus blank rat and human plasma at 37° C. for 2 hours. The radioactivity was determined in spiked blood samples, in plasma obtained after centrifugation and in both compartments after dialysis.

[3] = male, Wistar, rat, in vivo, iv
Protocol: (§1) The pharmacokinetic study was performed with 3 male Wistar rats (BRL) weighing 300-330 g with a one week interval between administration phases. The day before the first dosing, the rats underwent surgical implantation of an in-dwelling cannula; the right femoral artery was cannulated and the tube was passed subcutaneously to emerge at the back of the neck. The animals were individually housed in metabolism cages and fasted overnight before administrations.
(§2) The dose solution was administered (5 mL/kg) by gastric incubation.
(§3) The dose solution was administered (2 mL/kg) into the surgically exposed femoral vein.
(§4) During the study, 18 blood samples (100-500 μL) were taken, up to 48 hours post-dose from the cannulated femoral artery representing a total volume of 5.7 mL blood. The loss of blood was compensated by infusion of 6 times 1 mL of blood from donor rats. Urine samples were collected up to 48 hours post-dose. For the analysis of the in vivo brain distribution, 3 male rats were intravenously dosed (1 mg/kg or 72 μCi/kg) as described above. At 0.5 hours after administration, the rats were sacrificed; blood and brain were collected.
(§5) Determination of radioactivity in blood, plasma, brain homogenates and in urine, was carried out by direct liquid scintillation counting. Prior to radiometric determination, blood and tissue were solubilized in Solutron (Kontron Instruments, Zurich, Switzerland). After adding 10 mL of scintillation cocktail (Lumasafe, Lumac, Landgraaf, the Netherlands), all samples were counted in Tri-carb liquid scintillation analyzer (Canberra Packard, IL).
(§6) The procedure involved the addition of 5 μg of non-radiolabeled 42 to each blood sample as an internal standard. After adding 1 mL of acetonitrile, the sample was mixed with a Polytron mixer and centrifuged (234000×g, 30 minutes) in a Beckman centrifuge (Model TL100). The supernatant was evaporated in a vacuum centrifuge (Univapo 150H, Zivy). The residue was reconstituted in 250 μL of mobile phase-water (3:1 v/v) and centrifuged (3000×g, 60 s). The supernatant (200 μL) was injected onto HPLC. […] Compound 42 was separated from potential metabolites and endogenous compounds on a RP18 endcapped Superspher column, 125 mm×4 mm (Merck) at 45° C. The mobile phase consisted of 0.1% tetramethylammonium hydroxide—acetonitrile (500:500 v/v). The flow rate was 1 mL/min; the effluent was monitored at 260 nm. […] The limit of quantification was 0.3 ng/mL.
(§7) The peeling method was applied to describe the data by a compartment model approach, characterized by the following equation: C═C1*e^λ1−t+C2*e^λ2−t. The initial estimates of C1, λ1, C2, λ2 were taken to generate the best fit using the computer software ELSFIT. The estimates for half-lives were calculated as T1/2λi=ln2/λi.

[4] = in vivo; conditions: male, Wistar, rat
Protocol: as §1, §2, §3, §4, §5, §6, §7

[5] = tested on: basal plasma levels of growth hormone, glucagon, insulin and glucose; assay: Endocrine parameters in the Rhesus monkey after subcutaneous administration; assay type: in vivo
Protocol: Therefore, they were further investigated in the Rhesus monkey and their activity profile was determined. Using subcutaneous administration, they were characterized in this species, by measuring their effects on the basal plasma levels of growth hormone, glucagon, insulin as well changes in glucose levels.
Animals and blood sampling: Rhesus monkeys, fed on the previous day in the morning with fruits only, were placed, slightly anesthetized with ketamin (Ketalar©, Parke-Davis), in primate chairs and brought to the experimental room. A catheter, consisting of an in-dwelling cannula (Vasocan Braunüle, 20G, B. Braun Melsungen AG, D-Melsungen), an extension line made from PP 800/110/260/100 Portex© tubing and a special adapter between cannula and tubing with a minimal void volume, was placed in a saphenic vein. The total volume of this catheter was approximately 0.7 mL. The distal end was placed through a hole in the wall to the adjacent room in order to allow infusion and blood sampling without being noticed by the animal. The animals were monitored with a video system.
During the entire duration of the experiment an infusion of 5 to 10 mL/h of isotonic saline (NaCl 0.9% Braun, B. Braun Medical AG, CH-Emmenbrücke) containing heparin sodium 80 mg/L (Biochemie GMBH, A-Kundl) was maintained, using a roller pump (Vario-Perpex, Guldener, CH-Zürich). At each sampling time 1.5 mL (twice the void volume of the catheter) was taken in one syringe before collecting the actual blood sample of 2 mL in another syringe. The first 1.5 mL were reinfused immediately after the actual sample had been taken. The sample was mixed with 0.1 mL of a mixture containing EDTA (ethlenediaminetetraacetic acid tetrasodium Fluka, CH-Buchs) and aprotinin (Trasylol©, Bayer) resulting in final concentrations of 1.8 mg/mL and 1000 KIE/mL, respectively. The blood samples were kept on ice and spun in a cooled centrifuge. […]
Determinations: The blood levels of the hormones were determined by radioimmunoassay (RIA) using the appropriate antisera, antibodies, labels and standards, glucose by an enzymatic assay: […]

[6] = tested on: GHRH stimulated GH secretion; assay: GH secretion, rat in urethan anesthesia, intraduodenal + repeated GHRH stimulation; assay type: in vivo; conditions: urethan
Text: No further treatment followed subcutaneous or intraduodenal application. […] This value has been determined in a total of four independent experiments. […] However, in further studies compound 47 has also been tested by the enteral route of administration after repeated stimulation of the GH secretion by GHRH. […] With most of these selected compounds additional in vivo experiments in other models (intraduodenal application followed by repeated stimulation of the GH secretion by GHRH, oral application by gavage of unanesthetized, estradiol primed rats) were performed. Table 4 summarizes data obtained for the inhibition of the stimulated GH secretion after subcutaneous, intraduodenal and intravenous application and the inhibitory effects obtained for different time points during intravenous infusion of selected hydantoins. […] [table]

Chain of sst2 (P30874 whole entry, species assumed): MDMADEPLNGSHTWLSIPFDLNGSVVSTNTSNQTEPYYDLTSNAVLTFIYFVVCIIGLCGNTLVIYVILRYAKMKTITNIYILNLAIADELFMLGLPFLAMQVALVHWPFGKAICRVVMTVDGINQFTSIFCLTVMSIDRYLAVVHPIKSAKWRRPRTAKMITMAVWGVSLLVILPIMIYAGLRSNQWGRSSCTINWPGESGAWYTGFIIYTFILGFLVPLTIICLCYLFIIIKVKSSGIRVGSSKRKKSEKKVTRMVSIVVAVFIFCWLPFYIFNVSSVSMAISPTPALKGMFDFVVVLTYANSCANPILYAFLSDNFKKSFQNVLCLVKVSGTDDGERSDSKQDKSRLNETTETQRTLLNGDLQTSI

SMILES: Cc1cccc2c(CC3C(=O)N(CCCCCN)C(=O)N3S(=O)(=O)c3ccc(Oc4ccc(O)cc4)c(C#N)c3)c[nH]c12 (stereo not drawn) [Compound 14]
- sst2 cyclase pEC50 [1]: 9.32

- fraction free in human plasma [2]: 15-23%
- AUC ratio parent drug/radioactivity [3]: 0.7
- f2 (fraction of dose eliminated within λ2) [3]: 67%
- bioavailability [4]: 1.3 ± 0.9%
- Vd ([4]; iv, 1 mg/kg): 20 L/kg
- clearance ([4]; iv, 1 mg/kg): 4.5 mL/min
- half-life ([4]; iv, first half-life t1/2λ1): 0.45 h
- half-life ([4]; iv, terminal half-life t1/2): 24 h
SMILES: N#Cc1cc(S(=O)(=O)N2C(=O)N(CCCCCN)C(=O)C2Cc2c[nH]c3ccccc23)ccc1Oc1ccc(N)cc1 (stereo not drawn) [Compound 42]

SMILES: Cc1cccc2c(CC3C(=O)N(CCCCCN)C(=O)N3S(=O)(=O)c3ccc(Oc4ccc(O)c(Cl)c4)c(C#N)c3)c[nH]c12 (stereo not drawn) [Compound 44]
- inhibitory effects on hormone release ([5]; up to 1100 μg/kg): no consistent inhibitory effects
- INTRADUODENAL + GHRH ID50 15′ ([6]; ø = no effect at this dose): 13 mg/kg
- INTRADUODENAL + GHRH ID50 30′ [6]: 16 mg/kg
- INTRADUODENAL + GHRH ID50 60′ [6]: 19 mg/kg

SMILES: Cc1cccc2c(CC3C(=O)N(CCCCCN)C(=O)N3S(=O)(=O)c3ccc(Oc4ccc(O)cc4)c(CN)c3)c[nH]c12 (stereo not drawn) [Compound 45]
- dose levels necessary for inhibition of hormone release, times higher than Octreotride [5]: about 100 times
- INTRADUODENAL + GHRH ID50 15′ ([6]; ø = no effect at this dose): 4.663 mg/kg
- INTRADUODENAL + GHRH ID50 30′ [6]: 6.52 mg/kg
- INTRADUODENAL + GHRH ID50 60′ [6]: 14.047 mg/kg
- INTRADUODENAL + GHRH ID50 120′ ([6]; 120′, ø = no effect at this dose): ˜22000 μg/kg
